Biological target: NR1A/NR2B NMDA receptor (Rattus norvegicus, UniProt P35439+Q00960)
Test: Electrophysiological NR1A/NR2B assay in Xenopus oocytes (two-electrode voltage clamp)
Format: cell-based
Details: Table 1; oocytes expressing NR1A/NR2B, currents activated by glutamate and glycine
Excerpt: I. Electrophysiological assays at NMDA receptor subunits (in vitro):
(i) Preparation of subunit RNA's:
cDNA clones encoding the NR1A, NR2A, NR2B, and NR2C rat NMDA receptor subtypes were used. (See, Moriyoshi et al., Nature (Lond.), 1991;354:31-37; Kutsuwada et al., Nature (Lond.), 1992;358:36-41; Monyer et al., Science (Washington, D.C.) 1992;256:1217-1221; Ikeda et al., FEBS Lett. 1992;313: 34-38; Ishii et al., J. Biol. Chem., 1993;268:2836-2843 for details of these clones or their mouse homologs). The clones were transformed into appropriate host bacteria and plasmid preparations were made with conventional DNA purification techniques. A sample of each clone was linearized by restriction enzyme digestion […] was synthesized with T3 RNA polymerase. The cRNA was diluted to 400 ng/μl and stored in 1 μl aliquots at −80° C. until injection.
(ii) The Xenopus oocyte expression system: […]
Electrical recordings were made using a conventional two-electrode voltage clamp (Dagan TEV-200) over periods ranging between 3 to 21 days following injection. […] Inhibitory potency of the novel antagonists of this invention was assessed on responses elicited by fixed concentrations of glutamate and glycine agonists, by measuring reductions in current induced by progressively increasing concentrations of invention compounds. […]

Sequence of NR1A/NR2B NMDA receptor (Q00960 27-1482, other chains not shown): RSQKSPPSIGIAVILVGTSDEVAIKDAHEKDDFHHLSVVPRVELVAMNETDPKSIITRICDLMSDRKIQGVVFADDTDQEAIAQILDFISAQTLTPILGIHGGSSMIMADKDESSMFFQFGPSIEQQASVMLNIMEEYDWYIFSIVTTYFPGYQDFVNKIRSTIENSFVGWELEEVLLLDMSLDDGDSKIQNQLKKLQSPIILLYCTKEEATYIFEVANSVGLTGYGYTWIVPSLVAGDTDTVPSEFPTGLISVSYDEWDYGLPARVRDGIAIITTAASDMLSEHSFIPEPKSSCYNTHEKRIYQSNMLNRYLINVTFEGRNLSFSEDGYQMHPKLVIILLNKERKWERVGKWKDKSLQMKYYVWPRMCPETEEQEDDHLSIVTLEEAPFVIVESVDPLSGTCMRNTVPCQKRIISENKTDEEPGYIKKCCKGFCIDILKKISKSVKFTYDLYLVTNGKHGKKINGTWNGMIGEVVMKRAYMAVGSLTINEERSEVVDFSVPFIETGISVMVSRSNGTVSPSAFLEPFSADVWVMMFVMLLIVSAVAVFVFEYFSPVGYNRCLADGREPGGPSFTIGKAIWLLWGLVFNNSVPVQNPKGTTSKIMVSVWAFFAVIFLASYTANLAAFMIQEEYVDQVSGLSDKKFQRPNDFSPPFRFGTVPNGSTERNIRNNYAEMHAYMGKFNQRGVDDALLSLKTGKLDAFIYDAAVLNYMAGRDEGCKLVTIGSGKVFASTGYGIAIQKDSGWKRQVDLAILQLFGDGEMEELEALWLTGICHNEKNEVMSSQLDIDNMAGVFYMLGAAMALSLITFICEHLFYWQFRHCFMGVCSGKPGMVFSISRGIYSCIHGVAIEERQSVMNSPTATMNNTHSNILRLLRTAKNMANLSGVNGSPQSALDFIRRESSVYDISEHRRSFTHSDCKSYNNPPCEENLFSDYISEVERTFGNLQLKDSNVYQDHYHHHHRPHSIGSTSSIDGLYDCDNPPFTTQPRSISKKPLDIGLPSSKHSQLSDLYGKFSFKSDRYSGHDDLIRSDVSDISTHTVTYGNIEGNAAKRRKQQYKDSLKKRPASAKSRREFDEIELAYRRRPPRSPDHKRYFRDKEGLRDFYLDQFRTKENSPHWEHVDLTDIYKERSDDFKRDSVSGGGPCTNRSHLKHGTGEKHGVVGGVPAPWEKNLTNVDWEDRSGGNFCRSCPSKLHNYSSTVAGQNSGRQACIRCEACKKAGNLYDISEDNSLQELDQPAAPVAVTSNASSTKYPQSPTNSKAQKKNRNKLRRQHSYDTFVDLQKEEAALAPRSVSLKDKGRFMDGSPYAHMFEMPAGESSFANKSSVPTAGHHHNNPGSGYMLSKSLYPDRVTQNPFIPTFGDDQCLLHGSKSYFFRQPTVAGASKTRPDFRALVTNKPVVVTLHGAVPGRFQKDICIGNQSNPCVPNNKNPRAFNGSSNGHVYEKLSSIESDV

O=c1[nH]c2ccc(C3=NOC(CN4CCC(Cc5ccccc5)CC4)C3)cc2o1 (racemic) [Example 1, 6-[5-(4-Benzylpiperidin-1-ylmethyl)-4,5-dihydroisoxazol-3-yl]-3H-benzoxazol-2-one]
IC50: 0.08 µM
